Like-named read-outs stand apart in the source and are kept apart here.
Columns and labels:
LasR protein = molecular target: T1, LasR protein (Pseudomonas aeruginosa, UniProt P25084); experiment: Activation of the LasR protein by optical isomers
T1 construct: expressed in transfected cells; host or cells: E. coli MG4 containing pKDT17 (plac-lasR plus lasB::lacZ reporter)

[1] = test system: lasB promoter activity in E. coli MG4 (pKDT17, lasR + lasB::lacZ); experiment: P. aeruginosa autoinducer bioassay (lasB::lacZ β-galactosidase reporter); format: cell-based; settings: for β-galactosidase (lasB::lacZ promoter activity): average of four experiments ± range
Method: (§1) For production of PAI, cultures of P. aeruginosa PAO1 or E. coli TB1 containing pLasI-1 were grown to the late-logarithmic phase in A medium (Maniatis, T., Fritsch, E. F., and Sambrook, J. (1992) Molecular Cloning: A Laboratory Manual, ed. Nolan C. (Cold Spring Harbor Laboratory, Cold Spring Harbor, N.Y.), 2nd Ed) supplemented with 0.4% glucose, 0.05% yeast extract, and 1 mM MgSO4 with shaking at 37° C., unless otherwise specified. For subsequent use in autoinducer bioassays, E. coli MG4 containing pKDT17 was grown in supplemented A medium at 30° C. with shaking, and E. coli VJS533 containing pHV200I^− was grown in L broth (Silhavy, T. J., Berman, M. L. and Enquist, L. W. (1984) Experiments with Gene Fusions (Cold Spring Harbor Lab., Cold Spring Harbor, N.Y.), P. 217) at 30° C. with shaking. For plasmid screening and maintenance, ampicillin (100 μg/ml) was included in E. coli cultures, and carbenicillin (200 ug/ml) was included in cultures of P. aeruginosa.
For the bioassay, overnight cultures of E. coli containing the lasB-promoter reporter, pKDT17 were diluted in supplemented A mediun to an optical density of 0.1 at 660 nm, and stored on ice. Each bioassay consisted of 2 ml of the cell suspension plus the test sample. After 5.5 h at 30° C. with shaking, β-galactosidase activity was measured by the CHCl3-sodium dodecyl sulfate method described by Miller (Miller, J. A. (1976) Experiments in Molecular Genetics (Cold Spring Harbor Lab., Cold Spring Harbor, N.Y.), pp. 352-355). As described in Example 1, there was a linear dose response to autoinducer in this bioassay. Without addition of autoinducer, β-galactosidase activities were 25±10 Miller units, and with saturating amounts of autoinducer, β-galactosidase activities were 1300±200 Miller units. A unit of P. aeruginosa autoinducer activity is defined as that amount required to achieve ½-saturation in the bioassay.

[2] = test system: V. fischeri luminescence genes (LuxR) in E. coli VJS533 (pHV200I−); settings: literature (Eberhard et al. 1986), cited from earlier work
[3] = test system: conjugal transfer genes in Agrobacterium tumefaciens; settings: literature (Zhang et al. 1993); cited from earlier work
[4] = test system: V. fischeri luminescence genes (LuxR) in E. coli VJS533 (pHV200I−); experiment: V. fischeri autoinducer bioassay (luminescence); format: cell-based
Method: as §1
The quantitative assay for VAI was based on those described elsewhere (Kaplan, H. B. and Greenberg, E. P. (1985) J. Bacteriol. 163, 1210-1214; Bainton, N. J., Bycroft, B. W., Chhabra, S. R., Stead, P., Gledhill, L., Hill, P. J., Rees, C. E. D., Winson, M. K., Salmond, G. P. C., Stewart, G. S. A. B. and Williams, P. (1992) Gene 116, 87-91; Nealson, K. H. (1977) Arch. Microbiol. 112, 73-79). E. coli VJS533 containing pHV200I^− was used to test for V. fischeri autoinducer activity. The plasmid, pHV200I^− contains all of the V. fischeri genes necessary for autoinducible luminescence in E. coli, however, the gene encoding autoinducer synthase, luxI, is inactivated such that E. coli containing pHV200I^− is not luminescent without addition of VAI. Overnight cultures of E. coli containing pHV200I^− were diluted to an optical density of 0.01 at 660 nm in an assay medium consisting of 0.05% tryptone, 0.03% glycerol, 100 mM NaCl, 50 mM MgSO4, and 10 mM potassium phosphate, pH 7. […] After 3 hours at room temperature, luminescence was measured by using a Beckman LS 1800 Scintillation Counter that was set for single photon counting. […]

T1 sequence (P25084 whole entry): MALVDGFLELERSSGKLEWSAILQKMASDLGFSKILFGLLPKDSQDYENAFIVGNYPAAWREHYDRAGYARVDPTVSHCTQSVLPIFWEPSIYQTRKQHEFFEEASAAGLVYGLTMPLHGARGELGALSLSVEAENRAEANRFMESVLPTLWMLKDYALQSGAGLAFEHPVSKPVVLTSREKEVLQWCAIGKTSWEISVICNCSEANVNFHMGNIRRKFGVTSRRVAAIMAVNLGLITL

CCCCCCCCCC(=O)CC(=O)N[C@H]1CCOC1=O (single isomer, unassigned) [D-isomer, N-(3-oxododecanoyl)homoserine lactone]
activity of the isomer (activation of the LasR protein) (LasR protein): small amount of activity
inhibition of the ability of the L-isomer to activate the LasR protein (LasR protein; by attaching to the autoinducer binding domain of LasR): can inhibit

CCCCCC(=O)CC(=O)NC1CCOC1=O (centres unmarked) [AAI, N-(3-oxooctanoyl)homoserine lactone]
activity as P. aeruginosa autoinducer (inducer of lasB promoter), in words [1]: considerable activity
β-galactosidase (lasB::lacZ promoter activity) ([1]; 50 nM autoinducer added): 56 +/− 5 Miller units
β-galactosidase (lasB::lacZ promoter activity) ([1]; 500 nM autoinducer added): 733 +/− 50 Miller units
concentration required for activity as the P. aeruginosa autoinducer, compared with PAI ([1]; relative to PAI): higher
maximal response as P. aeruginosa autoinducer, compared with PAI ([1]; relative to PAI): lower
activity with V. fischeri LuxR / luminescence genes [2]: shows activity
activity with V. fischeri LuxR / luminescence genes ([2]; listed as N-(3-oxooctanoyl)homoserine lactone): some activity
activity as the A. tumefaciens autoinducer [3]: shows activity

CCCCCCCCCC(=O)CC(=O)NC1CCOC1=O [N-(3-oxododecanoyl) L-homoserine lactone, N-(3-oxododecanoyl)homoserine lactone]
activity as P. aeruginosa autoinducer (inducer of lasB promoter), in words [1]: biologically active
EC50 ([1]; Escherichia coli, read-out: half-maximal response in P. aeruginosa autoinducer bioassay): 3 to 5 nM
activity of the isomer (activation of the LasR protein) (LasR protein): active form
VAI activity (induction of luminescence) of HPLC peaks ([4]; HPLC fractions of PAI peaks): no significant VAI activity

CCCC(=O)CC(=O)N[C@H]1CCOC1=O [VAI, N-(3-oxohexanoyl)homoserine lactone]
activity as P. aeruginosa autoinducer (inducer of lasB promoter), in words [1]: did not show any detectable activity
β-galactosidase (lasB::lacZ promoter activity) ([1]; 50 nM autoinducer added): 33 +/− 3 Miller units
β-galactosidase (lasB::lacZ promoter activity) ([1]; 500 nM autoinducer added): 34 +/− 1 Miller units
activity in the P. aeruginosa autoinducer bioassay ([1]; concentrations as high as 1 uM): no detectable activity
concentration giving maximal response in the V. fischeri autoinducer bioassay [4]: about 50 nM
EC50 ([4]; synthetic VAI standard curve, read-out: half-maximal response in V. fischeri autoinducer bioassay (one unit of activity)): ~25 nM
